Assay results published in PMC9921273, “Omega-3 PUFAs as a Dietary Supplement in Senile Systemic Amyloidosis” (Nutrients, 2023).

Assays:
transthyretin (wt-TTR) [1] = biological target: T1, transthyretin (wt-TTR) (Homo sapiens, UniProt P02766); test: ANS fluorescence displacement binding assay (also turbidimetric and ThT fibril formation assays); parameters: wt-TTR tetramer, human plasma
transthyretin (wt-TTR) [2] = biological target: T1, transthyretin (wt-TTR); test: ANS fluorescence displacement binding assay (also turbidimetric fibril formation assay); parameters: wt-TTR tetramer, human plasma

Compound | IC50 (transthyretin (wt-TTR) [1]) [µM] | IC50 (transthyretin (wt-TTR) [2]) [µM]
CC/C=C\C/C=C\C/C=C\C/C=C\C/C=C\C/C=C\CCC(=O)O [DHA, docosahexaenoic acid] | 12.1 ± 0.07 | –
CC/C=C\C/C=C\C/C=C\C/C=C\C/C=C\CCCC(=O)O [EPA, eicosapentaenoic acid] | – | 13 ± 0.08
